Source: US20250228858A1, “ANTI-CANCER COMBINATION THERAPY” (Boehringer Ingelheim International GmbH, priority 2023, published 2025)
Read-outs that look alike come from different tables or passages of the source.

Assays:
[1] = test system: HER2-overexpressing human breast cancer cell line SUM190PT; assay type: in vivo
Procedure: The study is performed in human breast cancer cell line SUM190PT grown as subcutaneous xenografts in NMRI-Foxn1^nu mice. Day 1 was the first day, day 21 the last day of treatment and final day of analysis.
Cells are obtained and cultured as described in Example 8 (see paragraph 8.1.2).
Capecitabine can be purchased from Roche Pharma AG. Capecitabine is suspended with 0.5% Natrosol and administered intragastrally with a volume of 10 ml/kg.
Tumor volumes and side effects are monitored as described in Example 1 (see paragraph 1.1.6), except that control animals are sacrificed when the median tumor volume of the group reaches a size of approximately 540 mm^3.
(§1) The statistical evaluation of the tumor volume and the body weight is conducted on day 21 (last day of the study). Apart from this, statistical analysis was performed as described in Example 1 (see paragraph 1.1.7), with no evaluation of tumor growth after stop of treatment.

[2] = test system: HER2-overexpressing human breast cancer cell line BT-474; assay type: in vivo; conditions: alone or combined
Procedure: The study is performed in human breast cancer cell line BT-474 grown as orthotopic xenografts in NMRI-Foxn1^nu mice. Day 1 was the first day, day 42 the last day of treatment and final day of analysis.
BT-474 is a HER2-overexpressing human breast cancer cell line that can be obtained from ATCC (lot #61136823). Cells are cultured in T75, T175 and 5-Layer tissue culture flasks at 37° C. and 5% CO2. The medium used is Hybri-Care (ATCC, 46-X) supplemented with 1.5 g/L sodium bicarbonate (GIBCO, Ref.: 25080-060) and 10% FCS (Cytiva HyClone Characterized FBS, SH30084.03n). Cultures are split twice weekly with a ratio of 1:2-1:3.
To establish subcutaneous tumors, BT-474 cells are harvested by centrifugation, washed and resuspended in PBS+5% FCS at 5×10^7 cells/ml. […] cell suspension containing 5×10^6 cells is injected orthotopically into the right mammary fat pad of isoflurane anesthetized mice (1 site per mouse).
Pertuzumab can be purchased from Roche Pharma AG. Pertuzumab is diluted with saline (0.9%) and administered intraperitoneally with a volume of 10 ml/kg.
Mice in the control group are treated with vehicle, i.e.: • (i) 0.5% Natrosol, administered once daily for the duration of the treatment intragastrally by gavage needle with a volume of 10 ml/kg body weight; and • (ii) saline (0.9%), administered once every 3 weeks intravenously into the tail vein with a volume of 5 ml/kg; and • (iii) saline (0.9%), administered once every week intraperitoneally with a volume of 10 ml/kg.
Tumor volumes and side effects are monitored as described in Example 1 (see paragraph 1.1.6), except that control animals are sacrificed when the median tumor volume of the group reaches a size of approximately 470 mm^3.
The statistical evaluation of the tumor volume and the body weight is conducted on day 42 (last day of the study). Apart from this, statistical analysis was performed as described in Example 1 (see paragraph 1.1.7), with no evaluation of tumor growth after stop of treatment.

[3] = test system: HER2-overexpressing human esophagus cancer cell line OE19; assay type: in vivo; conditions: day 20, zongertinib 20 mg/kg qdx20 p.o., T-DXd 3 mg/kg q21dx1 i.v., alone or combined; for Regressions >30%: tumors regressed/total
Procedure: The study is performed in human esophagus cancer cell line OE19 grown as subcutaneous xenografts in NMRI-Foxn1^nu mice. Day 1 was the first day, day 20 the final day of analysis.
OE19 is a HER2-overexpressing human esophagus cancer cell line that can be obtained from the European Collection of Authenticated Cell Cultures (ACACC Cat. No. 960071721). Cells are cultured in T75, T175 and 5-Layer tissue culture flasks at 37° C. and 5% CO2. The medium used is RPMI 1640 (ATCC #30-2001) supplemented with 10% FCS (Thermo Scientific #SH 30084.03). Cultures are split twice weekly with a ratio of 1:3-1:4.
To establish subcutaneous tumors, OE19 cells are harvested by centrifugation, washed and resuspended in PBS+5% FCS at 5×10^7 cells/ml. 100 μl cell suspension containing 5×10^6 cells is injected subcutaneously into the right flank of the mice (1 site per mouse).
Tumor volumes and side effects are monitored as described in Example 1 (see paragraph 1.1.6), except that control animals are sacrificed when the median tumor volume of the group reaches a size of approximately 1190 mm^3.
The statistical evaluation of the tumor volume and the body weight is conducted on day 20.

[4] = test system: HER2-overexpressing human NSCLC cell line NCI-H2170; test: NCI-H2170 subcutaneous xenograft, zongertinib with T-DXd; assay type: in vivo, NMRI-Foxn1^nu mice; conditions: day 21, alone or combined; for Regressions >30%: tumors regressed/total (partial response)
Procedure: The study is performed in human NSCLC cell line NCI-H2170 grown as subcutaneous xenografts in NMRI-Foxn1^nu mice. Day 1 was the first day, day 21 the last day of treatment and final day of analysis.
NCI-H2170 is a HER2-overexpressing NSCLC cell line that can be obtained from the American Type Culture Collection (ATCC #CRL-5928; original vial lot: 4419196). Cells are cultured in T175 tissue culture flasks at 37° C. and 5% CO2. The medium used is RPMI 1640 (ATCC #30-2001) supplemented with 10% fetal bovine serum (FBS) (Gibco #26140079). Cultures are split twice weekly with a ratio of 1:3-1:9.
To establish subcutaneous tumors, NCI-H2170 cells are harvested by centrifugation, washed and resuspended in PBS+5% FCS at 1×10^7 cells/ml. 100 μl cell suspension containing 1×10^6 cells are injected subcutaneously into the right flank of the mice (1 site per mouse).
Tumor volumes and side effects are monitored as described in Example 1 (see paragraph 1.1.6), except that control animals are sacrificed when the median tumor volume of the group reaches a size of approximately 1000 mm^3.
as §1

[5] = zongertinib 20 mg/kg qdx21 p.o., T-DXd 3 mg/kg q21dx1 i.v.

`C=CC(=O)NC1CCN(c2ncc3ncnc(Nc4ccc(Oc5ccc6c(c5)ncn6C)c(C)c4)c3n2)CC1` [Zongertinib, N-{1-[8-({3-methyl-4-[(1-methyl-1H-1,3-benzodiazol-5-yl)oxy]phenyl}amino)-[1,3]diazino [5,4-d]pyrimidin-2-yl]piperidin-4-yl}prop-2-enamide] was tested, and the “Regressions >30%” value ([1]; day 21, tumors regressed/total (partial response), zongertinib 10 mg/kg qdx21 p.o., capecitabine 400 mg/kg qdx21 p.o., trastuzumab 20 mg/kg q7dx3 i.p., alone or combined) was 0/8, the TGI ([1]; day 21, zongertinib 10 mg/kg qdx21 p.o., capecitabine 400 mg/kg qdx21 p.o., trastuzumab 20 mg/kg q7dx3 i.p., alone or combined) was 53% and the “effect on tumor growth (median tumor volumes over time)” value ([1]; zongertinib 10 mg/kg qdx21, capecitabine 400 mg/kg qdx21, trastuzumab 20 mg/kg q7dx3, alone or triple combination) was “delayed tumor growth but did not shrink tumors”. For the same molecule, the “Regressions >30%” value ([2]; day 42, tumors regressed/total (partial response), zongertinib 10 mg/kg qdx42 p.o., T-DXd 1 mg/kg q21dx2 i.v., pertuzumab 20 mg/kg q7dx6 i.p.) was 0/8, the “stable disease (tumors remained stable)” value ([2]; day 42, zongertinib 10 mg/kg qdx42, T-DXd 1 mg/kg q21dx2) was 2 out of 8 and the TGI ([2]; day 42, zongertinib 10 mg/kg qdx42 p.o., T-DXd 1 mg/kg q21dx2 i.v., pertuzumab 20 mg/kg q7dx6 i.p.) was 70%. For the same molecule, the “effect on tumor growth (median tumor volumes over time)” value ([2]; zongertinib 10 mg/kg qdx42, T-DXd 1 mg/kg q21dx2, pertuzumab 20 mg/kg q7dx6) was “delayed tumor growth, but median tumor volumes increased in the course of the experiment”, the “Regressions >30%” value [3] was 0/8 and the “Regressions >30%” value ([3]; listed as zongertinib) was “no tumors”. The TGI [3] was 73%, the stable disease ([4]; number of tumors out of 8, zongertinib 20 mg/kg qdx21, T-DXd 3 mg/kg q21dx1) was 1 and the “Regressions >30%” value [4, 5] was 0/8. The “Regressions >30%” value ([4]; zongertinib 20 mg/kg qdx21 p.o., T-DXd 3 mg/kg q21dx1 i.v., listed as zongertinib) was “no partial responses” and the TGI [4, 5] was 89%.
